Target: T1, ERK5 (Homo sapiens, UniProt Q13164)
T1 construct: made in house
Test: ERK5 IMAP assay (fluorescence polarisation)
Type: biochemical
Conditions: average (e.g. geometric mean) where more than one data point; read-out: ERK5 IC50
Experimental: The assay buffer was prepared using 0.01% Tween®-20 5× stock, supplied as part of IMAP™ FP Progressive Binding System Kit (Molecular Devices R7436) and diluted to 1× using miliQ H2O. 1 μL of a 1M DTT stock was added for every 1 mL of 1× assay buffer to give a final concentration of 1 mM DTT.
ERK5 was expressed and purified at CRT-DL by Leon Pang and Sue Young. Aliquots were stored at −80° C. The ERK5 working solution was used at a […] final dilution in assay buffer. […] For 1 plate, […] of ERK5 stock was added to 2262 μL of 1× assay buffer.
To prepare the IMAP™ binding solution for one plate 20.5 μL of IMAP™ binding reagent stock, 1476 μL of 1× binding buffer A (60%), and 984 μL of binding buffer B (40%) (IMAP™ FP Progressive screening express kit (Molecular Devices R8127) was added to 9819.5 μL of milliQ H2O.
1 μL of inhibitor (in 60:40 H2O/DMSO) or 60:40 H2O/DMSO (for controls and blanks) were dry-spotted into the relevant wells of a 384-well assay plate using the MATRIX PlateMate® Plus. 5 μL of ERK5 working solution was added to test and control wells, and 5 μL of 1× assay buffer added to blanks; 4 μL of ATP/substrate working solution was added to all wells using a Matrix multichannel pipette. The plate was sealed using DMSO resistant clear seal and incubated for 2 h at 37° C. 1 μL of the kinase reaction mixture from the first plate was dry spotted into a second 384-well assay plate using the MATRIX PlateMate® Plus. 9 μL of assay buffer was added, followed by 30 μL of IMAP™ binding solution using a multichannel pipette. The plate was incubated at RT in darkness for 2 h. The assay plate was then read on an Analyst HT plate reader (Molecular Devices) using the settings described below: […]

T1 sequence (Q13164 whole entry): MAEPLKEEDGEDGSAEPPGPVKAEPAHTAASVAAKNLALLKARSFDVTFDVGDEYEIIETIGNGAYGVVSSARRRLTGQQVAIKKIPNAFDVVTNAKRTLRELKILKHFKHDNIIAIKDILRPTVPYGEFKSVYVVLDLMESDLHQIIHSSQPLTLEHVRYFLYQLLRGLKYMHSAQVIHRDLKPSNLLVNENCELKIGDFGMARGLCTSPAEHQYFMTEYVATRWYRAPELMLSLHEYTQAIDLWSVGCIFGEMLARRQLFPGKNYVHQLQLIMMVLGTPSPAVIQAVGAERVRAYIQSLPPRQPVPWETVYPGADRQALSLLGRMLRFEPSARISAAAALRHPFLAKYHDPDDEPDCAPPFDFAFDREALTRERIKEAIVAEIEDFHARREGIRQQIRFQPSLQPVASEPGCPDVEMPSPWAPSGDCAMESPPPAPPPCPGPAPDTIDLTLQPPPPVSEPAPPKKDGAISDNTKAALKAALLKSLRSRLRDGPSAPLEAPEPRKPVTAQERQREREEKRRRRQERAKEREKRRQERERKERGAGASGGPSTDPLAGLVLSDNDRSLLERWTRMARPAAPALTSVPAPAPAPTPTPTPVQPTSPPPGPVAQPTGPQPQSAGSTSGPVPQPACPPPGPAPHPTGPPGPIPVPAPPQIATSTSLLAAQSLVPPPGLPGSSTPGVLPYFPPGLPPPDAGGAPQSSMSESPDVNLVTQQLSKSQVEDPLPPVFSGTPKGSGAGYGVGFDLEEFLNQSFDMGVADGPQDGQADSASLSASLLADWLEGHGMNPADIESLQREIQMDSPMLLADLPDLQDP

Row | IC50 [nM] | SMILES
1 | 4110 | O=C(Nc1cnc(N2CCCC2)nc1)c1cc(C(=O)c2c(F)cccc2Cl)c[nH]1 [Example 14, 4-(2-Chloro-6-fluorobenzoyl)-N-(2-(pyrrolidin-1-yl)pyrimidin-5-yl)-1H-pyrrole-2-carboxamide]
2 | 1260 | Cc1ccncc1NC(=O)c1cc(C(=O)c2c(F)cccc2Cl)c[nH]1 [Example 87, 4-(2-Chloro-6-fluorobenzoyl)-N-(4-methylpyridin-3-yl)-1H-pyrrole-2-carboxamide]
3 | 2990 | COc1ccc(Cl)c(C(=O)c2c[nH]c(C(=O)Nc3cnn(C4CCN(CC(F)(F)F)CC4)c3)c2)c1F [Example 64, 4-(6-Chloro-2-fluoro-3-methoxybenzoyl)-N-(1-(1-(2,2,2-trifluoroethyl)piperidin-4-yl)-1H-pyrazol-4-yl)-1H-pyrrole-2-carboxamide]
4 | 53 | O=C(Nc1cnc(CN2CCOCC2)nc1)c1cc(C(=O)c2c(Cl)ccc(Cl)c2F)c[nH]1 [Example 242, 4-(3,6-Dichloro-2-fluorobenzoyl)-N-(2-(morpholinomethyl)pyrimidin-5-yl)-1H-pyrrole-2-carboxamide]
5 | 874 | O=C(Nc1ccc(OC2COC2)nc1)c1cc(C(=O)c2c(Cl)ccc(Cl)c2F)c[nH]1 [Example 279, 4-(3,6-Dichloro-2-fluorobenzoyl)-N-(6-(oxetan-3-yloxy)pyridin-3-yl)-1H-pyrrole-2-carboxamide]
6 | 291 | O=C(Nc1cccnc1)c1cc(C(=O)c2c(F)ccc(Cl)c2F)c[nH]1 [Example 210, 4-(3-Chloro-2,6-difluorobenzoyl)-N-(pyridin-3-yl)-1H-pyrrole-2-carboxamide]
7 | 368 | Cc1cc(NC(=O)c2cc(C(=O)c3c(F)cccc3Cl)c[nH]2)cc(C)n1 [Example 134, 4-(2-Chloro-6-fluorobenzoyl)-N-(2,6-dimethylpyridin-4-yl)-1H-pyrrole-2-carboxamide]
8 | 17.6 | Cn1ccnc1Cn1cc(NC(=O)c2cc(C(=O)c3c(Cl)ccc(Cl)c3F)c[nH]2)cn1 [Example 51, 4-(3,6-Dichloro-2-fluorobenzoyl)-N-(1-((1-methyl-1H-imidazol-2-yl)methyl)-1H-pyrazol-4-yl)-1H-pyrrole-2-carboxamide]
9 | 636 | CN1CCC(NC(=O)c2cc(C(=O)c3c(F)ccc(F)c3Cl)c[nH]2)CC1 [Example 216, 4-(2-Chloro-3,6-difluorobenzoyl)-N-(1-methylpiperidin-4-yl)-1H-pyrrole-2-carboxamide]
10 | 437 | CCN1CCC(NC(=O)c2cc(C(=O)c3c(F)cccc3Cl)c[nH]2)CC1 [Example 5, 4-(2-Chloro-6-fluorobenzoyl)-N-(1-ethylpiperidin-4-yl)-1H-pyrrole-2-carboxamide]
11 | 1900 | Cc1cccc(F)c1C(=O)c1c[nH]c(C(=O)Nc2ccncc2)c1 [Example 185, 4-(2-Fluoro-6-methylbenzoyl)-N-(pyridin-4-yl)-1H-pyrrole-2-carboxamide]
12 | 2450 | C=C(C)c1ccc(F)c(C(=O)c2c[nH]c(C(=O)Nc3cccnc3)c2)c1F [Example 168, 4-(2,6-Difluoro-3-(prop-1-en-2-yl)benzoyl)-N-(pyridin-3-yl)-1H-pyrrole-2-carboxamide]
13 | 1750 | O=C(Nc1cnc(N2CCN(C3CC3)CC2)nc1)c1cc(C(=O)c2c(Cl)ccc(Cl)c2F)c[nH]1 [Example 17, N-(2-(4-cyclopropylpiperazin-1-yl)pyrimidin-5-yl)-4-(3,6-dichloro-2-fluorobenzoyl)-1H-pyrrole-2-carboxamide]
14 | 343 | O=C(Nc1ccnc(N2CCOCC2)c1)c1cc(C(=O)c2c(Cl)ccc(Cl)c2F)c[nH]1 [Example 38, 4-(3,6-Dichloro-2-fluorobenzoyl)-N-(2-morpholinopyridin-4-yl)-1H-pyrrole-2-carboxamide]
15 | 7450 | O=Cc1ccc(F)c(C(=O)c2c[nH]c(C(=O)Nc3cccnc3)c2)c1F [Example 265, 4-(2,6-difluoro-3-formylbenzoyl)-N-(pyridin-3-yl)-1H-pyrrole-2-carboxamide]
16 | 8710 | O=C(Nc1cnccc1N1CCCC1)c1cc(C(=O)c2c(Cl)ccc(Cl)c2F)c[nH]1 [Example 98, 4-(3,6-Dichloro-2-fluorobenzoyl)-N-(4-(pyrrolidin-1-yl)pyridin-3-yl)-1H-pyrrole-2-carboxamide]
17 | 660 | Cc1ccc(F)c(C(=O)c2c[nH]c(C(=O)Nc3cccnc3)c2)c1F [Example 217, 4-(2.6-Difluoro-3-methylbenzoyl)-N-(pyridin-3-yl)-1H-pyrrole-2-carboxamide]

Row | IC50 [nM] | SMILES
18 | 1670 | CCc1ccncc1NC(=O)c1cc(C(=O)c2c(Cl)ccc(Cl)c2F)c[nH]1 [Example 94, 4-(3,6-Dichloro-2-fluorobenzoyl)-N-(4-ethylpyridin-3-yl)-1H-pyrrole-2-carboxamide]
19 | 390 | O=C(Nc1ccc(OCCO)nc1)c1cc(C(=O)c2c(Cl)ccc(Cl)c2F)c[nH]1 [Example 281, 4-(3,6-Dichloro-2-fluorobenzoyl)-N-(6-(2-hydroxyethoxy)pyridin-3-yl)-1H-pyrrole-2-carboxamide]
20 | 2060 | O=C(Nc1cncnc1)c1cc(C(=O)c2cc(Cl)ccc2F)c[nH]1 [Example 229, 4-(5-Chloro-2-fluorobenzoyl)-N-(pyrimidin-5-yl)-1H-pyrrole-2-carboxamide]
21 | 1190 | Cc1ncc(NC(=O)c2cc(C(=O)c3c(F)cccc3Br)c[nH]2)cn1 [Example 155, 4-(2-Bromo-6-fluorobenzoyl)-N-(2-methylpyrimidin-5-yl)-1H-pyrrole-2-carboxamide]
22 | 9.2 | COc1ccc(Cl)c(C(=O)c2c[nH]c(C(=O)Nc3ccc(CC4CCNCC4)nc3)c2)c1F [Example 117, 4-(6-Chloro-2-fluoro-3-methoxybenzoyl)-N-(6-(piperidin-4-ylmethyl)pyridin-3-yl)-1H-pyrrole-2-carboxamide]
23 | 1150 | O=C(Nc1ccncn1)c1cc(C(=O)c2c(F)cccc2Cl)c[nH]1 [Example 132, 4-(2-Chloro-6-fluorobenzoyl)-N-(pyrimidin-4-yl)-1H-pyrrole-2-carboxamide]
24 | 20.2 | O=C(Nc1cnn(Cc2cccnc2)c1)c1cc(C(=O)c2c(Cl)ccc(Cl)c2F)c[nH]1 [Example 49, 4-(3,6-Dichloro-2-fluorobenzoyl)-N-(1-(pyridin-3-ylmethyl)-1H-pyrazol-4-yl)-1H-pyrrole-2-carboxamide]
25 | 4350 | O=C(Nc1ccnc(Cl)n1)c1cc(C(=O)c2c(F)cccc2Cl)c[nH]1 [Example 140, 4-(2-Chloro-6-fluorobenzoyl)-N-(2-chloropyrimidin-4-yl)-1H-pyrrole-2-carboxamide]
26 | 36 | CN1CCN(c2cc(NC(=O)c3cc(C(=O)c4c(Cl)ccc(Cl)c4F)c[nH]3)ccn2)CC1 [Example 37, 4-(3,6-Dichloro-2-fluorobenzoyl)-N-(2-(4-methylpiperazin-1-yl)pyridin-4-yl)-1H-pyrrole-2-carboxamide]
27 | 23000 | O=C(Nc1cccnc1)c1cc(C(=O)c2c(F)cccc2C2CC2)c[nH]1 [Example 202, 4-(2-Cyclopropyl-6-fluorobenzoyl)-N-(pyridin-3-yl)-1H-pyrrole-2-carboxamide]
28 | 960 | Cc1ncccc1NC(=O)c1cc(C(=O)c2c(F)cccc2Cl)c[nH]1 [Example 148, 4-(2-Chloro-6-fluorobenzoyl)-N-(2-methylpyridin-3-yl)-1H-pyrrole-2-carboxamide]
29 | 394 | Cc1ncccc1NC(=O)c1cc(C(=O)c2c(Cl)ccc(Cl)c2F)c[nH]1 [Example 81, 4-(3,6-Dichloro-2-fluorobenzoyl)-N-(2-methylpyridin-3-yl)-1H-pyrrole-2-carboxamide]
30 | 200 | O=C(Nc1ccc(CO)nc1)c1cc(C(=O)c2c(Cl)ccc(Cl)c2F)c[nH]1 [Example 120, 4-(3,6-dichloro-2-fluorobenzoyl)-N-(6-(hydroxymethyl)pyridin-3-yl)-1H-pyrrole-2-carboxamide]
31 | 26.9 | COc1ccc(Cl)c(C(=O)c2c[nH]c(C(=O)Nc3ccc(NC4CCN(C)CC4)nc3)c2)c1F [Example 61, 4-(6-Chloro-2-fluoro-3-methoxybenzoyl)-N-(6-((1-methylpiperidin-4-yl)amino)pyridin-3-yl)-1H-pyrrole-2-carboxamide]
32 | 203 | CCOc1ccc(Cl)c(C(=O)c2c[nH]c(C(=O)Nc3cnn(C)c3)c2)c1F [Example 257, 4-(6-Chloro-3-ethoxy-2-fluorobenzoyl)-N-(1-methyl-1H-pyrazol-yl)-1H-pyrrole-2-carboxamide]
33 | 2800 | Cn1cc(NC(=O)c2cc(C(=O)c3c(Cl)ccc(OC4CCOCC4)c3F)c[nH]2)cn1 [Example 268, 4-(6-Chloro-2-fluoro-3-((tetrahydro-2H-pyran-4-yl)oxy)benzoyl)-N-(1-methyl-1H-pyrazol-4-yl)-1H-pyrrole-2-carboxamide]
34 | 148 | O=C(Nc1cnn(C2CCOCC2)c1)c1cc(C(=O)c2c(Cl)ccc(Cl)c2F)c[nH]1 [Example 237, 4-(3,6-Dichloro-2-fluorobenzoyl)-N-(1-(tetrahydro-2H-pyran-4-yl)-1H-pyrazol-4-yl)-1H-pyrrole-2-carboxamide]
